Measurements reported in PubChem BioAssay AID1919004 (Molecular Pharmacology Branch, DTP, NCI, 2023).

Tested on: 883617-216-R-J1-PDC complex spheroids, growth, % test/control
Test: Anticancer human tumor 883617-216-R-J1-PDC patient-derived bladder carcinoma cell line growth inhibition [AhR]
Settings: for IC50: curve of first compound; for viability, T/C: stronger effect = lower value
Outline: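 Spheroids combined tumor cells with HUVEC endothelial cells and human MSCs as stroma. AhR antagonists were paired with standard or investigational drugs, each dosed in half-log steps down from near clinical Cmax, or from 10 microM where Cmax was unknown.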

[1] = second compound 0.1 µM, first compound 0.0316 µM
[2] = second compound 0.1 µM, first compound 0.1 µM
[3] = second compound 0.1 µM, first compound 0.316 µM
[4] = second compound 0.1 µM, first compound 1 µM
[5] = second compound 0.1 µM, first compound 3.16 µM
[6] = second compound 0.1 µM, first compound 10 µM
[7] = second compound 0.316 µM, first compound 0.0316 µM
[8] = second compound 0.316 µM, first compound 0.1 µM
[9] = second compound 0.316 µM, first compound 0.316 µM
[10] = second compound 0.316 µM, first compound 1 µM
[11] = second compound 0.316 µM, first compound 3.16 µM
[12] = second compound 0.316 µM, first compound 10 µM
[13] = second compound 1 µM, first compound 0.0316 µM
[14] = second compound 1 µM, first compound 0.1 µM
[15] = second compound 1 µM, first compound 0.316 µM
[16] = second compound 1 µM, first compound 1 µM
[17] = second compound 1 µM, first compound 3.16 µM
[18] = second compound 1 µM, first compound 10 µM
[19] = second compound 3.16 µM, first compound 0.0316 µM
[20] = second compound 3.16 µM, first compound 0.1 µM
[21] = second compound 3.16 µM, first compound 0.316 µM
[22] = second compound 3.16 µM, first compound 1 µM
[23] = second compound 3.16 µM, first compound 3.16 µM
[24] = second compound 3.16 µM, first compound 10 µM
[25] = second compound 10 µM, first compound 0.0316 µM
[26] = second compound 10 µM, first compound 0.1 µM
[27] = second compound 10 µM, first compound 0.316 µM
[28] = second compound 10 µM, first compound 1 µM
[29] = second compound 10 µM, first compound 3.16 µM
[30] = second compound 10 µM, first compound 10 µM
[31] = second compound 0.1 µM, first compound 0.00316 µM
[32] = second compound 0.1 µM, first compound 0.01 µM
[33] = second compound 0.316 µM, first compound 0.00316 µM
[34] = second compound 0.316 µM, first compound 0.01 µM
[35] = second compound 1 µM, first compound 0.00316 µM
[36] = second compound 1 µM, first compound 0.01 µM
[37] = second compound 3.16 µM, first compound 0.00316 µM
[38] = second compound 3.16 µM, first compound 0.01 µM
[39] = second compound 10 µM, first compound 0.00316 µM
[40] = second compound 10 µM, first compound 0.01 µM
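Also: exposure lasted 7 days after dosing on day 3 of spheroid growth.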

SMILES: CCc1c2c(nc3ccc(O)cc13)-c1cc3c(c(=O)n1C2)COC(=O)[C@]3(O)CC + Cc1cncc(-c2nc(NCCc3c[nH]c4ccccc34)c3ncn(C(C)C)c3n2)c1
- IC50 (second compound 0.1 µM): 270 nM
- IC50 (second compound 0.316 µM): > 300 nM
- IC50 (second compound 1 µM): > 300 nM
- IC50 (second compound 3.16 µM): 265 nM
- IC50 (second compound 10 µM): < 0.949 nM
- viability, T/C (second compound 0.1 µM, first compound 0.000949 µM): 85.1%
- viability, T/C (second compound 0.1 µM, first compound 0.003 µM): 79.9%
- viability, T/C (second compound 0.1 µM, first compound 0.00949 µM): 79%
- viability, T/C (second compound 0.1 µM, first compound 0.03 µM): 71.2%
- viability, T/C (second compound 0.1 µM, first compound 0.0949 µM): 61.1%
- viability, T/C (second compound 0.1 µM, first compound 0.3 µM): 49%
- viability, T/C (second compound 0.316 µM, first compound 0.000949 µM): 83.9%
- viability, T/C (second compound 0.316 µM, first compound 0.003 µM): 94.5%
- viability, T/C (second compound 0.316 µM, first compound 0.00949 µM): 77.5%
- viability, T/C (second compound 0.316 µM, first compound 0.03 µM): 65.8%
- viability, T/C (second compound 0.316 µM, first compound 0.0949 µM): 56.4%
- viability, T/C (second compound 0.316 µM, first compound 0.3 µM): 54.3%
- viability, T/C (second compound 1 µM, first compound 0.000949 µM): 87.6%
- viability, T/C (second compound 1 µM, first compound 0.003 µM): 89.3%
- viability, T/C (second compound 1 µM, first compound 0.00949 µM): 84.7%
- viability, T/C (second compound 1 µM, first compound 0.03 µM): 72.5%
- viability, T/C (second compound 1 µM, first compound 0.0949 µM): 64.3%
- viability, T/C (second compound 1 µM, first compound 0.3 µM): 53.9%
- viability, T/C (second compound 3.16 µM, first compound 0.000949 µM): 91.9%
- viability, T/C (second compound 3.16 µM, first compound 0.003 µM): 99.5%
- viability, T/C (second compound 3.16 µM, first compound 0.00949 µM): 86.1%
- viability, T/C (second compound 3.16 µM, first compound 0.03 µM): 88.9%
- viability, T/C (second compound 3.16 µM, first compound 0.0949 µM): 55.8%
- viability, T/C (second compound 3.16 µM, first compound 0.3 µM): 49.4%
- viability, T/C (second compound 10 µM, first compound 0.000949 µM): 44.6%
- viability, T/C (second compound 10 µM, first compound 0.003 µM): 48.3%
- viability, T/C (second compound 10 µM, first compound 0.00949 µM): 27.3%
- viability, T/C (second compound 10 µM, first compound 0.03 µM): 31.3%
- viability, T/C (second compound 10 µM, first compound 0.0949 µM): 25.5%
- viability, T/C (second compound 10 µM, first compound 0.3 µM): 27.1%

SMILES: COc1ccc([C@@H](O)c2cc(-c3ncnc4cc(N5CCOCC5)ccc34)c(F)cc2Cl)nn1 + Cc1ccccc1N=Nc1ccc(NC(=O)c2ccnn2C)c(C)c1
- IC50 (second compound 0.1 µM): 3450 nM
- IC50 (second compound 0.316 µM): 2300 nM
- IC50 (second compound 1 µM): 2420 nM
- IC50 (second compound 3.16 µM): 1780 nM
- IC50 (second compound 10 µM): 1690 nM
- viability, T/C [1]: 97.8%
- viability, T/C [2]: 91.4%
- viability, T/C [3]: 81.3%
- viability, T/C [4]: 67.8%
- viability, T/C [5]: 51.4%
- viability, T/C [6]: 33.8%
- viability, T/C [7]: 83.7%
- viability, T/C [8]: 84.9%
- viability, T/C [9]: 78.3%
- viability, T/C [10]: 61.4%
- viability, T/C [11]: 46.4%
- viability, T/C [12]: 33.9%
- viability, T/C [13]: 91.1%
- viability, T/C [14]: 80.7%
- viability, T/C [15]: 72.8%
- viability, T/C [16]: 60.2%
- viability, T/C [17]: 47.2%
- viability, T/C [18]: 32.6%
- viability, T/C [19]: 76.8%
- viability, T/C [20]: 80%
- viability, T/C [21]: 76.1%
- viability, T/C [22]: 58.2%
- viability, T/C [23]: 41.9%
- viability, T/C [24]: 32.9%
- viability, T/C [25]: 75.4%
- viability, T/C [26]: 74.2%
- viability, T/C [27]: 64.5%
- viability, T/C [28]: 57.3%
- viability, T/C [29]: 42.3%
- viability, T/C [30]: 34.2%

SMILES: CC1COCCN1c1cc(-c2ccnn2C)c2ccnc(-c3ccn[nH]3)c2n1 (stereo not given) + Cc1cncc(-c2nc(NCCc3c[nH]c4ccccc34)c3ncn(C(C)C)c3n2)c1
- IC50 (second compound 0.1 µM): > 1000 nM
- IC50 (second compound 0.316 µM): > 1000 nM
- IC50 (second compound 1 µM): > 1000 nM
- IC50 (second compound 3.16 µM): > 1000 nM
- IC50 (second compound 10 µM): < 3.16 nM
- viability, T/C [31]: 94.9%
- viability, T/C [32]: 92.8%
- viability, T/C [1]: 83.7%
- viability, T/C [2]: 76.5%
- viability, T/C [3]: 61.5%
- viability, T/C [4]: 53.9%
- viability, T/C [33]: 101%
- viability, T/C [34]: 103%
- viability, T/C [7]: 98.5%
- viability, T/C [8]: 77.3%
- viability, T/C [9]: 60.2%
- viability, T/C [10]: 54.5%
- viability, T/C [35]: 96.1%
- viability, T/C [36]: 107%
- viability, T/C [13]: 95.9%
- viability, T/C [14]: 76%
- viability, T/C [15]: 70.3%
- viability, T/C [16]: 60.5%
- viability, T/C [37]: 115%
- viability, T/C [38]: 113%
- viability, T/C [19]: 117%
- viability, T/C [20]: 87.6%
- viability, T/C [21]: 72.7%
- viability, T/C [22]: 55.9%
- viability, T/C [39]: 45.3%
- viability, T/C [40]: 50.8%
- viability, T/C [25]: 51.5%
- viability, T/C [26]: 39.8%
- viability, T/C [27]: 30.9%
- viability, T/C [28]: 27.4%

SMILES: CC1(C)CCC(CN2CCN(c3ccc(C(=O)NS(=O)(=O)c4ccc(NCC5CCOCC5)c([N+](=O)[O-])c4)c(Oc4cnc5[nH]ccc5c4)c3)CC2)=C(c2ccc(Cl)cc2)C1 + Cc1cncc(-c2nc(NCCc3c[nH]c4ccccc34)c3ncn(C(C)C)c3n2)c1
- IC50 (second compound 0.1 µM): 6160 nM
- IC50 (second compound 0.316 µM): 6290 nM
- IC50 (second compound 1 µM): 5920 nM
- IC50 (second compound 3.16 µM): 8250 nM
- IC50 (second compound 10 µM): > 10000 nM
- viability, T/C [1]: 85.7%
- viability, T/C [2]: 88.8%
- viability, T/C [3]: 90%
- viability, T/C [4]: 78.6%
- viability, T/C [5]: 80.4%
- viability, T/C [6]: 28.5%
- viability, T/C [7]: 97.3%
- viability, T/C [8]: 99.2%
- viability, T/C [9]: 94.2%
- viability, T/C [10]: 88.5%
- viability, T/C [11]: 82.2%
- viability, T/C [12]: 29%
- viability, T/C [13]: 86.5%
- viability, T/C [14]: 89.7%
- viability, T/C [15]: 87.7%
- viability, T/C [16]: 84.5%
- viability, T/C [17]: 82.5%
- viability, T/C [18]: 23%
- viability, T/C [19]: 99.1%
- viability, T/C [20]: 108%
- viability, T/C [21]: 115%
- viability, T/C [22]: 97.2%
- viability, T/C [23]: 106%
- viability, T/C [24]: 38.9%
- viability, T/C [25]: 49.4%
- viability, T/C [26]: 52.6%
- viability, T/C [27]: 57.1%
- viability, T/C [28]: 61.4%
- viability, T/C [29]: 72%
- viability, T/C [30]: 37.3%

SMILES: Nc1ncn(C2CC(O)C(CO)O2)c(=O)n1 (stereo not given) + CC(CO)NC(=O)c1cc(-c2ccc(Cl)cc2)nn(-c2cnn(C)c2)c1=O
- IC50 (second compound 0.1 µM): > 1000 nM
- IC50 (second compound 0.316 µM): > 1000 nM
- IC50 (second compound 1 µM): > 1000 nM
- IC50 (second compound 3.16 µM): > 1000 nM
- IC50 (second compound 10 µM): > 1000 nM
- viability, T/C [31]: 101%
- viability, T/C [32]: 79.9%
- viability, T/C [1]: 76.8%
- viability, T/C [2]: 72.5%
- viability, T/C [3]: 81.7%
- viability, T/C [4]: 82.3%
- viability, T/C [33]: 67.2%
- viability, T/C [34]: 90.2%
- viability, T/C [7]: 101%
- viability, T/C [8]: 76.4%
- viability, T/C [9]: 71.7%
- viability, T/C [10]: 89.7%
- viability, T/C [35]: 90.7%
- viability, T/C [36]: 60.6%
- viability, T/C [13]: 78.8%
- viability, T/C [14]: 72.1%
- viability, T/C [15]: 75.1%
- viability, T/C [16]: 78.8%
- viability, T/C [37]: 83.3%
- viability, T/C [38]: 61.1%
- viability, T/C [19]: 81%
- viability, T/C [20]: 76.8%
- viability, T/C [21]: 56.8%
- viability, T/C [22]: 78.1%
- viability, T/C [39]: 59%
- viability, T/C [40]: 84.8%
- viability, T/C [25]: 115%
- viability, T/C [26]: 93.1%
- viability, T/C [27]: 75.7%
- viability, T/C [28]: 81.2%
